{"source": "patent US6194422A", "about": "“Anthracycline derivatives” (Pharmacia & Upjohn SpA, priority 1997, dated 2001)"}
{"molecular_target": "Aβ1-40 peptide monomer (Homo sapiens, UniProt P05067)", "sequence (P05067 672-711 limits assumed)": "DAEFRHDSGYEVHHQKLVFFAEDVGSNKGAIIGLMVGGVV", "type": "biochemical", "details": "50 μM test compound, 20 μM Aβ1-40 monomer, 4 μM pre-formed sonicated Aβ1-40 fibrils, pH 7.4, two hours at 37° C., HPLC", "method": "The activity of the disclosed compounds is assessed according to the procedure reported below. An Aβ1-40 peptide monomer stock solution is prepared by dissolving the peptide in dimethylsulfoxide at a concentration of 33.33 mg/mL. The stock solution is further diluted 1 to 11.5 with dimethylsulfoxide. This solution is then diluted with 10 mM phosphate buffer pH 7.4 containing 150 mM sodium chloride to prepare the test solution. To an eppendorf tube containing 47 μL of Aβ1-40 peptide monomer solution are added 3 μL of a 830 μM water solution of the test compound containing 66.4 μM, based on the Aβ1 -40 monomer content, of pre-formed sonicated Aβ1-40 fibrils: the resulting solution is 20 μM in Aβ1-40 monomer, 50 μM in the test compound and contains 4 μM, based on the Aβ1-40 monomer content, of pre-formed sonicated Aβ1-40 fibrils. The aggregation is allowed to proceed for two hours at 37° C. The suspension is then centrifuged at 15000 rpm for 15 minutes at +4° C., the supernatant is collected and the Aβ1 -40 monomer is quantitated by HPLC. The activity is expressed as the percent of inhibition of the aggregation of a 20 μM Aβ1-40 monomer solution stimulated by 4 μM, based on the Aμ1-40 monomer content, pre-formed sonicated Aμ1-40 fibrils.", "units": {"% inhibition (of the aggregation of Aβ1-40 monomer)": "%"}}
{"smiles": "CCON=C1CC2NC1(C)Cc1c(O)c3c(c(O)c12)C(=O)c1c(OC)cccc1C3=O", "note": "(single isomer, unassigned) [lac-I, Anthrazalone O-ethyloxime]", "% inhibition (of the aggregation of Aβ1-40 monomer)": 54.2}
{"smiles": "COc1ccc(CN2C3CC(=NO)C2(C)Cc2c(O)c4c(c(O)c23)C(=O)c2c(OC)cccc2C4=O)cc1OC", "note": "(stereo not drawn) [Compound 1a, 8-N-(3,4-dimethoxybenzyl) anthrazalone oxime]", "% inhibition (of the aggregation of Aβ1-40 monomer)": 22.9}
{"smiles": "C=CCN1C2CC(=NOC)C1(C)Cc1c(O)c3c(c(O)c12)C(=O)c1c(OC)cccc1C3=O", "note": "(stereo not drawn) [Compound 1c, 8-N-allylanthrazalone O-methyl-oxime]", "% inhibition (of the aggregation of Aβ1-40 monomer)": 36.0}
{"smiles": "CON=C1CC2c3c(O)c4c(c(O)c3CC1(C)N2Cc1ccc(OC)c(OC)c1)C(=O)c1cccc(OC)c1C4=O", "note": "(stereo not drawn) [Compound 1e, 8-N-(3.4-dimethoxybenzyl)anthrazalone O-methyloxime]", "% inhibition (of the aggregation of Aβ1-40 monomer)": 26.2}
{"smiles": "CON=C1CC2c3c(O)c4c(c(O)c3CC1(C)N2Cc1ccncc1)C(=O)c1cccc(OC)c1C4=O", "note": "(stereo not drawn) [Compound 1p, 8-N-(4-pyridylmethyl)anthrazalone O-methyloxime]", "% inhibition (of the aggregation of Aβ1-40 monomer)": 31.7}
{"smiles": "COc1cccc2c1C(=O)c1c(O)c3c(c(O)c1C2=O)CC1(C)C(=NOCc2ccccc2)CC3N1Cc1ccncc1", "note": "(stereo not drawn) [Compound 1q, 8-N-(4-pyridylmethyl)anthrazalone O-benzyloxime]", "% inhibition (of the aggregation of Aβ1-40 monomer)": 24.2}
